According to patent US8686024B2, “Indoline derivatives” (priority 2009, dated 2014):
Like-named read-outs stand apart in the source and are kept apart here.

What was measured:
[1] = target: T1, butyrylcholine esterase (BuChE) (Mus musculus, UniProt Q03311); experiment: In vitro assay for choline esterase inhibition (Ellman method), butyrylthiocholine substrate, mouse serum; assay type: biochemical; conditions: for Ratio AChE/BuChE: selectivity for BuChE inhibition: IC50 (AchE)/IC50 (BuChE); for selectivity to butyrylcholinesterase (BuChE versus AChE inhibitory activity), in words: summary of Tables 1-3
T1 construct: brain homogenate and serum of mouse were used as choline esterase enzyme sources; from tissue; host or cells: mouse serum
Description: (§1) For measurement of esterase activity, brain homogenate and serum of mouse were used as choline esterase enzyme sources, and the method of Ellman et. al (Biochemical pharmacology 7: 88-95 1961) were referred. Compound of each example were diluted in dimethylsulfoxide.
(§2) In detail, acetylthiocholine or butyrylthiocholine as substrates, test compounds, and DNTB [[…]] were added to the mouse brain homogenate or serum, respectively.
(§3) After incubation, thiocholine was produced by enzyme reaction in the mixture, and then, the yellow product was formed by the reaction of thiocholine and DTNB. The activity of acetylcholine esterase (AChE) or butyrylcholine esterase (BuChE) was evaluated by determination of absorbance at 415 nm. […] And the selectivity for BuChE inhibition of each compound was calculated by the ratio: IC50 (AchE)/IC50 (BuChE).

[2] = target: T2, acetylcholine esterase (AChE) (Mus musculus, UniProt P21836); experiment: In vitro assay for choline esterase inhibition (Ellman method), acetylthiocholine substrate, mouse brain homogenate; assay type: biochemical
T2 construct: brain homogenate and serum of mouse were used as choline esterase enzyme sources; from tissue; host or cells: mouse brain homogenate
T2 sequence (P21836 32-614): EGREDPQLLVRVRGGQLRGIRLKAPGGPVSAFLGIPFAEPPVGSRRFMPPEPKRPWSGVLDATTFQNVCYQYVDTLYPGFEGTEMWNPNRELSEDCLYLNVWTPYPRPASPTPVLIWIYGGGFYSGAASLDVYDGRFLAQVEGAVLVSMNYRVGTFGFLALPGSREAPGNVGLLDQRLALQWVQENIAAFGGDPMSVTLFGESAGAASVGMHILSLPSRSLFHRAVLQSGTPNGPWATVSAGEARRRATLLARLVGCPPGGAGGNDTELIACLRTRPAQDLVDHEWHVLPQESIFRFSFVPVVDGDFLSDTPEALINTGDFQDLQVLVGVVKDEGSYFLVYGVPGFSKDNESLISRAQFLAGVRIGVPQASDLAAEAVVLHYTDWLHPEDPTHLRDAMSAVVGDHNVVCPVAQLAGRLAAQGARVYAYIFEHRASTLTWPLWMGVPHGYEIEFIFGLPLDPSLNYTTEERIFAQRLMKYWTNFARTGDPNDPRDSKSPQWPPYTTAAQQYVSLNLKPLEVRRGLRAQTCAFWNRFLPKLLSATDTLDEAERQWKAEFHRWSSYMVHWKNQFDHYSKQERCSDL
Description: as §1, §2, §3

[3] = mouse serum, butyrylthiocholine, absorbance at 415 nm, read-out: BuChE inhibitory activity IC50
[4] = mouse brain homogenate, acetylthiocholine, absorbance at 415 nm, read-out: AChE inhibitory activity IC50

T1 sequence (Q03311 30-603): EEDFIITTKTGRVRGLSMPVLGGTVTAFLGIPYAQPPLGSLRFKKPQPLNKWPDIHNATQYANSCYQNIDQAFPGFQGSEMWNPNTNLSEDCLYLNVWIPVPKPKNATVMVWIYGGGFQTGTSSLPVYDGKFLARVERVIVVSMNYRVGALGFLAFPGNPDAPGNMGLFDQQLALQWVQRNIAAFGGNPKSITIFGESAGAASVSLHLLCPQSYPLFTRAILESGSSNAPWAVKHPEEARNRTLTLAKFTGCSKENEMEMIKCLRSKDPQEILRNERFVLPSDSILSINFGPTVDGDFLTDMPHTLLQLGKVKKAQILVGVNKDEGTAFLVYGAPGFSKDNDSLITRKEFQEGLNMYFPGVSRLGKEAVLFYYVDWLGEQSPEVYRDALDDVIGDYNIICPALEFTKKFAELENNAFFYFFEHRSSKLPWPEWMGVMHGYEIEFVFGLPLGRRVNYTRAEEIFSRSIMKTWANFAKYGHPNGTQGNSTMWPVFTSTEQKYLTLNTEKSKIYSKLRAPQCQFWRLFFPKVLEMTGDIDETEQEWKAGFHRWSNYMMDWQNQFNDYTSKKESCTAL

`C=C(C)CNC(=O)Oc1ccc2c(c1)CCN2Cc1ccccc1` [Example 53, 1-benzylindolin-5-yl 2-methylallylcarbamate] was tested, and the IC50 [1, 3] was 28 nM, the “Ratio AChE/BuChE” value [1] was 1600 and the “selectivity to butyrylcholinesterase (BuChE versus AChE inhibitory activity), in words” value [1] was “much higher”. The IC50 [2, 4] was 46 µM.

In the case of `O=C(NCCSCc1ccco1)Oc1ccc2c(c1)CCN2Cc1ccccc1` [Example 54, 1-benzylindolin-5-yl 2-(furfurylthio)ethylcarbamate], the IC50 [1] is reported as 15 nM, the “Ratio AChE/BuChE” value [1] is reported as >6700 and the “selectivity to butyrylcholinesterase (BuChE versus AChE inhibitory activity), in words” value [1] is reported as “much higher”. The IC50 [2] was > 100 µM.

In the case of `Cc1ccc(NC(=O)Oc2ccc3c(c2)CCN3Cc2ccccc2)cc1` [Example 55, 1-benzylindolin-5-yl-4-methylphenylcarbamate], the IC50 [1, 3] is reported as 290 nM, the “Ratio AChE/BuChE” value [1] is reported as >340 and the IC50 ([2]; read-out: AChE inhibitory activity IC50) is reported as > 100 µM.

For `CCNC(=O)Oc1ccc2c(c1)CCN2Cc1ccccc1` [Example 57, 1-benzylindolin-5-yl ethylcarbamate], the IC50 [1, 3] was 34 nM, the “Ratio AChE/BuChE” value [1] was 2000 and the “selectivity to butyrylcholinesterase (BuChE versus AChE inhibitory activity), in words” value [1] was “much higher”. For the same compound, the IC50 [2, 4] was 69 µM.

`CC(C)c1ccc(NC(=O)Oc2ccc3c(c2)CCN3Cc2ccccn2)cc1` [Example 60, 1-(2-pyridylmethyl)indolin-5-yl 4-isopropylphenylcarbamate] was tested, and the IC50 [1] was 130 nM, the “Ratio AChE/BuChE” value [1] was >770 and the IC50 [2] was > 100 µM.

For `CC(C)c1ccc(NC(=O)Oc2ccc3c(c2)CCN3Cc2cccc(O)c2)cc1` [Example 62, 1-(3-hydroxybenzyl)indolin-5-yl 4-isopropylphenylcarbamate], the IC50 [1] was 450 nM, the “Ratio AChE/BuChE” value [1] was >220 and the IC50 [2] was > 100 µM.

`CC(C)c1ccc(NC(=O)Oc2ccc3c(c2)CCN3Cc2ccc[nH]2)cc1` [Example 65, 1-[(pyrrol-2-yl)methyl]indolin-5-yl-4-isopropylphenylcarbamate] was tested, and the IC50 [1, 3] was 700 nM, the “Ratio AChE/BuChE” value [1] was >140 and the IC50 [2, 4] was > 100 µM.

With `CC(C)c1ccc(NC(=O)Oc2ccc3c(c2)CCN3Cc2ccccc2O)cc1` [Example 66, 1-(2-hydroxybenzyl)indolin-5-yl 4-isopropylphenylcarbamate] the IC50 [1] was 570 nM, the “Ratio AChE/BuChE” value [1] was >180 and the IC50 [2] was > 100 µM.

For `COc1cc(CN2CCc3cc(OC(=O)Nc4ccc(C(C)C)cc4)ccc32)ccc1O` [Example 67, 1-(4-hydroxy-3-methoxybenzyl)indolin-5-yl-4-isopropylphenylcarbamate], the IC50 [1, 3] was 1300 nM, the “Ratio AChE/BuChE” value [1] was >77 and the IC50 [2, 4] was > 100 µM.

`CC(C)c1ccc(NC(=O)Oc2ccc3c(c2)CCN3CC2CCCCC2)cc1` [Example 75, 1-(cyclohexylmethyl)indolin-5-yl 4-isopropylphenylcarbamate] was tested, and the IC50 [1] was 770 nM, the “Ratio AChE/BuChE” value [1] was >130 and the IC50 [2] was > 100 µM.

`CC(C)c1ccc(NC(=O)Oc2ccc3c(c2)CCN3Cc2ccc(O)cc2)cc1` [Example 78, 1-(4-hydroxybenzyl)indolin-5-yl 4-isopropylphenylcarbamate] was tested, and the IC50 [1] was 820 nM, the “Ratio AChE/BuChE” value [1] was >120 and the IC50 [2] was > 100 µM.

In the case of `CC(C)c1ccc(NC(=O)Oc2ccc3c(c2)CCN3Cc2c[nH]c3ccccc23)cc1` [Example 80, 1-(indol-3-ylmethyl)indolin-5-yl 4-isopropylphenylcarbamate], the IC50 [1] is reported as 140 nM, the “Ratio AChE/BuChE” value [1] is reported as >710 and the IC50 [2] is reported as > 100 µM.

`O=C(Nc1ccc2c(c1)CCC2)Oc1ccc2c(c1)CCN2Cc1ccccc1` [Example 85, 1-benzylindolin-5-yl 5-indanylcarbamate] was tested, and the IC50 [1] was 420 nM, the “Ratio AChE/BuChE” value [1] was >240 and the IC50 [2] was > 100 µM.

With `Cc1ccc(CCNC(=O)Oc2ccc3c(c2)CCN3Cc2ccccc2)cc1` [Example 91, 1-benzylindolin-5-yl-4-methylphenethylcarbamate] the IC50 [1, 3] was 59 nM, the “Ratio AChE/BuChE” value [1] was >1700 and the “selectivity to butyrylcholinesterase (BuChE versus AChE inhibitory activity), in words” value [1] was “much higher”. For the same compound, the IC50 [2, 4] was > 100 µM.

For `O=C(NC1CCCc2ccccc21)Oc1ccc2c(c1)CCN2Cc1ccccc1` (centres unmarked) [Example 96, 1-benzylindolin-5-yl-1,2,3,4-tetrahydronaphthalen-1-ylcarbamate], the IC50 [1, 3] was 17 nM, the “Ratio AChE/BuChE” value [1] was >5900 and the “selectivity to butyrylcholinesterase (BuChE versus AChE inhibitory activity), in words” value [1] was “much higher”. For the same compound, the IC50 [2, 4] was > 100 µM.

With `Cc1ccc(C(C)NC(=O)Oc2ccc3c(c2)CCN3Cc2ccccc2)cc1` (centres unmarked) [Example 97, 1-benzylindolin-5-yl 1-(p-tolyl)ethylcarbamate] the IC50 [1] was 450 nM, the “Ratio AChE/BuChE” value [1] was >220 and the IC50 [2] was > 100 µM.

`O=C(NCc1cccs1)Oc1ccc2c(c1)CCN2Cc1ccccc1` [Example 98, 1-benzylindolin-5-yl 2-thiophenemethylcarbamate] was tested, and the IC50 [1, 3] was 12 nM, the “Ratio AChE/BuChE” value [1] was 130 and the “selectivity to butyrylcholinesterase (BuChE versus AChE inhibitory activity), in words” value [1] was “much higher”. It also gave an IC50 [2, 4] of 1.6 µM.

In the case of `Cc1ccc(CNC(=O)Oc2ccc3c(c2)CCN3Cc2ccccc2)cc1` [Example 99, 1-benzylindolin-5-yl-4-methylbenzylcarbamate], the IC50 [1, 3] is reported as 21 nM, the “Ratio AChE/BuChE” value [1] is reported as 670 and the “selectivity to butyrylcholinesterase (BuChE versus AChE inhibitory activity), in words” value [1] is reported as “much higher”. It also gave an IC50 [2, 4] of 14 µM.

With `COc1cccc(CNC(=O)Oc2ccc3c(c2)CCN3Cc2ccccc2)c1` [Example 100, 1-benzylindolin-5-yl 3-methoxybenzylcarbamate] the IC50 [1, 3] was 7.3 nM, the “Ratio AChE/BuChE” value [1] was 220 and the “selectivity to butyrylcholinesterase (BuChE versus AChE inhibitory activity), in words” value [1] was “much higher”. The IC50 [2, 4] was 1.6 µM.

With `O=C(NCc1ccccn1)Oc1ccc2c(c1)CCN2Cc1ccccc1` [Example 102, 1-benzylindolin-5-yl 2-pyridylmethylcarbamate] the IC50 [1, 3] was 130 nM, the “Ratio AChE/BuChE” value [1] was 77 and the IC50 [2, 4] was 10 µM.

`O=C(NCc1ccncc1)Oc1ccc2c(c1)CCN2Cc1ccccc1` [Example 103, 1-benzylindolin-5-yl 4-pyridylmethylcarbamate] was tested, and the IC50 [1, 3] was 110 nM, the “Ratio AChE/BuChE” value [1] was 85 and the IC50 [2, 4] was 9.3 µM.

For `O=C(NCCc1ccc(Cl)cc1)Oc1ccc2c(c1)CCN2Cc1ccccc1` [Example 104, 1-benzylindolin-5-yl 4-chlorophenethylcarbamate], the IC50 [1, 3] was 11 nM, the “Ratio AChE/BuChE” value [1] was 500 and the “selectivity to butyrylcholinesterase (BuChE versus AChE inhibitory activity), in words” value [1] was “much higher”. For the same compound, the IC50 [2, 4] was 5.5 µM.

`Cc1ccc(NC(=O)Oc2ccc3c(c2)CCN3Cc2ccccc2)cc1C` [Example 113, 1-benzylindolin-5-yl 3,4-dimethylphenylcarbamate] was tested, and the IC50 [1] was 160 nM, the “Ratio AChE/BuChE” value [1] was >630 and the IC50 [2] was > 100 µM.

For `CCCNC(=O)Oc1ccc2c(c1)CCN2Cc1ccccc1` [Example 114, 1-benzylindolin-5-yl n-propylcarbamate], the IC50 [1, 3] was 180 nM, the “Ratio AChE/BuChE” value [1] was 29 and the IC50 [2, 4] was 5.2 µM.

With `Cc1ccccc1CCNC(=O)Oc1ccc2c(c1)CCN2Cc1ccccc1` [Example 115, 1-benzylindolin-5-yl 2-methylphenethylcarbamate] the IC50 [1, 3] was 10 nM, the “Ratio AChE/BuChE” value [1] was 1200 and the “selectivity to butyrylcholinesterase (BuChE versus AChE inhibitory activity), in words” value [1] was “much higher”. For the same compound, the IC50 [2, 4] was 12 µM.

In the case of `Cc1ccc(CCNC(=O)Oc2ccc3c(c2)CCN3Cc2ccccc2)c(C)c1` [Example 116, 1-benzylindolin-5-yl 2,4-dimethylphenethylcarbamate], the IC50 [1] is reported as 45 nM, the “Ratio AChE/BuChE” value [1] is reported as >2200 and the “selectivity to butyrylcholinesterase (BuChE versus AChE inhibitory activity), in words” value [1] is reported as “much higher”. The IC50 [2] was > 100 µM.
